Measurements published in patent US20260317312A1, “ISOXAZOLIDINES AS RIPK1 INHIBITORS AND USE THEREOF” (GENZYME CORPORATION, priority 2023, published 2026).

Assays:
[1] = molecular target: T1, hRIPK1 (aa 1-375) fusion protein (Homo sapiens, UniProt Q13546); assay: Receptor-Interacting Protein Kinase 1 inhibition, ADP Glo assay (conversion of ATP to ADP due to autophosphorylation); format: biochemical; conditions: ATP 50 μM, 30 min preincubation, 240 min incubation, room temperature, DMSO 1%
T1 construct: hRIPK1 (aa 1-375) fusion protein
T1 sequence (Q13546 1-375): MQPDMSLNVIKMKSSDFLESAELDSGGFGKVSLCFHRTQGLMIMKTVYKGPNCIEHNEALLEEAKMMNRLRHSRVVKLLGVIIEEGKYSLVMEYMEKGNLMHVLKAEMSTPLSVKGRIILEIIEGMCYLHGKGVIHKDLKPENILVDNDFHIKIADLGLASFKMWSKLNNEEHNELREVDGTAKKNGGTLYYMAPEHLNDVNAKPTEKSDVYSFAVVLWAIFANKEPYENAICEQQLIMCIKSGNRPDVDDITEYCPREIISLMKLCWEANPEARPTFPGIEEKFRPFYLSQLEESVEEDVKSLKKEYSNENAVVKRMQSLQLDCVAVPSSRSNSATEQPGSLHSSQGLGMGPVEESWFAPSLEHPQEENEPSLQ
Method: The catalytic activity of RIPK1 was measured by monitoring the conversion of Adenosine triphosphate (ATP) to Adenosine diphosphate (ADP) due to autophosphorylation using an ADP-Glo kinase kit (Promega, catalog no. V9104).
In detail, 2 μl recombinantly produced hRIPK1 (aa 1-375) fusion protein (end concentration 3.6 μg/ml) and 2 μl compound (end concentration 33300-1.69 nM; DMSO end concentration 1%) were incubated for 30 minutes at room temperature and then 2 μl ATP (ADP Glo kit, end concentration 50 μM) were added. After another 240 minutes incubation at room temperature, 5 μl Promega ADP-Glo reagent I was added to quench the reaction and deplete unconsumed ATP. After an incubation period of 30 minutes, 10 μl Promega ADP-Glo detection reagent II was added resulting in conversion of ADP to ATP, which generates a light-reaction between luciferase and luciferin. Luminescence was quantified after 30 minutes with a Pherastar FS (BMG LABTECH, Ortenberg).
The adjustment was obtained by nonlinear regression using the Levenberg Marquardt algorithm.

U937 cells = assay: Cellular assay in U937 cells to measure activity of RIPK1-inhibitors on cell death (necroptosis); format: cell-based; conditions: overnight (18 to 24 hrs), 37° C., MTS readout
Description: Upon TNF-Receptor I ligation, Ser/Thr kinase RIPK1 is recruited to a transient receptor complex I. Upon modification of RIPK1 which promotes activation of RIPK1, complex lib can form, that involves recruitment of RIPK3 and MLKL (mixed lineage-kinase domain-like protein) which then translocates from the cytosol to the plasma membrane to execute cell death (Cai, Z. et al, Nat. Cell Biol. (2014)16:55-65).
Cell death was quantified in 96 well plates by determination of the amount of live cell using a CellTiter 96 Aqueous reagent (Promega), a calorimetric method to measure the number of live cells by reducing tetrazolium compound [3-(4,5-dimethylthiazol-2-yl)-5-(3-carboxymethoxyphenyl)-2-(4-sulfophenyl)-2H-tetrazolium, inner salt; MTS] into formazan. Absorbance of formazan was read at 490 nm. The inhibitory activity of the test compound was quantified in a concentration response curve (CRC) experiment.
Compounds were obtained as 10 mM stock solutions and were diluted 1 to 10 volumes with DMSO to yield a 1 mM solution. From this solution 2 μl were diluted with 998 μl growth medium. 100 μl of 2 μM compound solution was further diluted sequentially with a dilution factor of 2.5 by adding 150 μl growth medium. A total of 10 concentrations were tested ranging from 10 μM to 0.26 nM or from 1 μM to 0.07 nM.
U937 cells were cultured in RPM11640 Glutamax and 10% heat inactivated FBS. 50 μl cell suspension containing 1×10^6 cells/ml supplemented with 50 μM zVAD.fmk (Benzyloxycarbonyl-Val-Ala-Asp (Ome) fluoromethylketone) and 100 ng/ml recombinant human TNFα were dispensed in each well of a 96-well plate. 50 μl of compound dilutions (described in Cellular assay in U937 cells) were added and the cell suspension incubated overnight (18 to 24 hrs) at 37° C., 5% CO2 in a humidified atmosphere (95% rH). High (no compound) and low control (no TNFα, zVAD.fmk) were tested with 7 replicates; all compound concentrations were tested in duplicates on each experimental plate.
CellTiter 96 Aqueous reagent was mixed (100 μl PMS (phenazine methosulfate) solution/2 ml MTS (3-(4,5-[…])-5-(3-carboxymethoxyphenyl)-2-(4-sulfophenyl)-2H-tetrazolium, inner salt) solution) and 20 μl were added per well. After 4 hrs incubation at 37° C. (5% CO2 95% rH) optical density was measured at 490 nm on a microplate reader (Tecan Infinite M1000).
The % inhibition is expressed as percentage of the maximal inhibition value obtained in the absence of TNFα/zVAD.fmc.

[2] = Homo sapiens, U-937, TNFα/zVAD.fmk induced cell death (necroptosis)
[3] = TNFα/zVAD.fmk induced cell death (necroptosis)

NC(=O)c1ccnc(C2CCC(C(=O)N3OCC[C@H]3c3cc(F)cc(F)c3)C2)c1 (single isomer, unassigned) [Compound 114]
IC50 [1]: 0.132 µM | IC50 (U937 cells; [2]): 0.816 µM

N#Cc1cc(F)cc([C@@H]2CCON2C(=O)C2CCC(COc3cc(C(N)=O)ncn3)C2)c1 (single isomer, unassigned) [Compound 115]
IC50 [1]: 0.053 µM | IC50 (U937 cells; [3]): 0.842 µM

N#Cc1cc(F)cc([C@@H]2CCON2C(=O)C2CCCC(COc3cc(C(N)=O)ncn3)CC2)c1 (single isomer, unassigned) [Compound 128]
IC50 [1]: 0.02 µM | IC50 (U937 cells; [3]): 0.691 µM

NC(=O)c1cc(OCC2CCC(C(=O)N3OCC[C@H]3c3cc(F)cc(F)c3)C2)ncn1 (single isomer, unassigned; stereoisomer 1) [Compound 118]
IC50 [1]: 0.02 µM | IC50 (U937 cells; [3]): 0.137 µM

NC(=O)c1cc(OCC2CCCC(C(=O)N3OCC[C@H]3c3cc(F)cc(F)c3)CC2)ncn1 (single isomer, unassigned; stereoisomer 1) [Compound 122]
IC50 [1]: 0.017 µM | IC50 (U937 cells; [3]): 0.03 µM

N#Cc1cc(F)cc([C@@H]2CCON2C(=O)C2CCCC(COc3cc(C(N)=O)ncn3)CC2)c1 (single isomer, unassigned; stereoisomer 1) [Compound 126]
IC50 [1]: 0.025 µM | IC50 (U937 cells; [3]): 0.054 µM

N#Cc1cc(F)cc([C@@H]2CCON2C(=O)C2CCC(COc3cc(C(N)=O)ncn3)C2)c1 (single isomer, unassigned; stereoisomer 2) [Compound 116]
IC50 [1]: 0.023 µM | IC50 (U937 cells; [3]): 0.377 µM

NC(=O)c1cc(OCC2CCC(C(=O)N3OCC[C@H]3c3cc(F)cc(F)c3)C2)ncn1 (single isomer, unassigned; stereoisomer 2) [Compound 119]
IC50 [1]: 0.029 µM | IC50 (U937 cells; [3]): 0.388 µM

NC(=O)c1cc(OCC2CCCC(C(=O)N3OCC[C@H]3c3cc(F)cc(F)c3)CC2)ncn1 (single isomer, unassigned; stereoisomer 2) [Compound 123]
IC50 [1]: 0.014 µM | IC50 (U937 cells; [3]): 0.024 µM

N#Cc1cc(F)cc([C@@H]2CCON2C(=O)C2CCCC(COc3cc(C(N)=O)ncn3)CC2)c1 (single isomer, unassigned; stereoisomer 2) [Compound 127]
IC50 [1]: 0.017 µM | IC50 (U937 cells; [3]): 0.031 µM

N#Cc1cc(F)cc([C@@H]2CCON2C(=O)C2CCC(COc3cc(C(N)=O)ncn3)C2)c1 (single isomer, unassigned; stereoisomer 3) [Compound 117]
IC50 [1]: 0.05 µM | IC50 (U937 cells; [3]): 0.675 µM

NC(=O)c1cc(OCC2CCC(C(=O)N3OCC[C@H]3c3cc(F)cc(F)c3)C2)ncn1 (single isomer, unassigned; stereoisomer 3) [Compound 120]
IC50 [1]: 0.032 µM | IC50 (U937 cells; [3]): 0.336 µM

NC(=O)c1cc(OCC2CCCC(C(=O)N3OCC[C@H]3c3cc(F)cc(F)c3)CC2)ncn1 (single isomer, unassigned; stereoisomer 3) [Compound 124]
IC50 [1]: 0.021 µM | IC50 (U937 cells; [3]): 0.081 µM

NC(=O)c1cc(OCC2CCC(C(=O)N3OCC[C@H]3c3cc(F)cc(F)c3)C2)ncn1 (single isomer, unassigned; stereoisomer 4) [Compound 121]
IC50 [1]: 0.03 µM | IC50 (U937 cells; [3]): 0.755 µM

NC(=O)c1cc(OCC2CCCC(C(=O)N3OCC[C@H]3c3cc(F)cc(F)c3)CC2)ncn1 (single isomer, unassigned; stereoisomer 4) [Compound 125]
IC50 [1]: 0.039 µM | IC50 (U937 cells; [3]): 0.347 µM

NC(=O)c1ccnc(N[C@H]2C[C@@H](C(=O)N3OCC[C@H]3c3cc(F)cc(F)c3)C2)n1 [Compound 1, cis-2-((3-((S)-3-(3,5-difluorophenyl)isoxazolidine-2-carbonyl)cyclobutyl)amino)pyrimidine-4-carboxamide]
IC50 [1]: 0.019 µM | IC50 (U937 cells; [2]): 0.034 µM

N#Cc1ccnc(N[C@H]2C[C@@H](C(=O)N3OCC[C@H]3c3cc(F)cc(F)c3)C2)n1 [Compound 2, cis-2-((3-((S)-3-(3,5-difluorophenyl)isoxazolidine-2-carbonyl)cyclobutyl)amino)pyrimidine-4-carbonitrile]
IC50 [1]: 0.022 µM | IC50 (U937 cells; [2]): 0.101 µM

COC(=O)c1ccnc(N[C@H]2C[C@@H](C(=O)N3OCC[C@H]3c3cc(F)cc(F)c3)C2)n1 [Compound 3, methyl cis-2-((3-((S)-3-(3,5-difluorophenyl)isoxazolidine-2-carbonyl)cyclobutyl)amino)pyrimidine-4-carboxylate]
IC50 [1]: 0.047 µM | IC50 (U937 cells; [2]): 0.536 µM

NC(=O)c1ccnc(N[C@H]2C[C@H](C(=O)N3OCC[C@H]3c3cc(F)cc(F)c3)C2)n1 [Compound 4, trans-2-((3-((S)-3-(3,5-difluorophenyl)isoxazolidine-2-carbonyl)cyclobutyl)amino)pyrimidine-4-carboxamide]
IC50 [1]: 0.09 µM | IC50 (U937 cells; [2]): 0.36 µM

C[C@]1(C(=O)N2OCC[C@H]2c2cc(F)cc(F)c2)C[C@@H](Nc2nccc(C#N)n2)C1 [Compound 5, cis-2-((3-((S)-3-(3,5-difluorophenyl)isoxazolidine-2-carbonyl)-3-methylcyclobutyl)amino)pyrimidine-4-carbonitrile]
IC50 [1]: 0.038 µM | IC50 (U937 cells; [2]): 0.075 µM

C[C@]1(C(=O)N2OCC[C@H]2c2cc(F)cc(F)c2)C[C@@H](Nc2nccc(C(N)=O)n2)C1 [Compound 6, cis-2-((3-((S)-3-(3,5-difluorophenyl)isoxazolidine-2-carbonyl)-3-methylcyclobutyl)amino)pyrimidine-4-carboxamide]
IC50 [1]: 0.021 µM | IC50 (U937 cells; [2]): 0.006 µM

C[C@]1(C(=O)N2OCC[C@H]2c2cncc(C#N)c2)C[C@@H](Nc2nccc(C(N)=O)n2)C1 [Compound 7, cis-2-((3-((S)-3-(5-cyanopyridin-3-yl)isoxazolidine-2-carbonyl)-3-methylcyclobutyl)amino)pyrimidine-4-carboxamide]
IC50 [1]: 0.023 µM | IC50 (U937 cells; [2]): 0.336 µM

CCOC(=O)c1ncnc(N[C@H]2C[C@@](C)(C(=O)N3OCC[C@H]3c3cc(F)cc(F)c3)C2)c1F [Compound 8, ethyl cis-6-((3-((S)-3-(3,5-difluorophenyl)isoxazolidine-2-carbonyl)-3-methylcyclobutyl)amino)-5-fluoropyrimidine-4-carboxylate]
IC50 [1]: 0.025 µM | IC50 (U937 cells; [2]): 0.196 µM

CCOC(=O)c1ncnc(Cl)c1N[C@H]1C[C@@](C)(C(=O)N2OCC[C@H]2c2cc(F)cc(F)c2)C1 [Compound 9, ethyl cis-6-chloro-5-((3-((S)-3-(3,5-difluorophenyl)isoxazolidine-2-carbonyl)-3-methylcyclobutyl)amino)pyrimidine-4-carboxylate]
IC50 [1]: 0.366 µM | IC50 (U937 cells; [2]): 0.757 µM

N#Cc1cc(F)cc([C@@H]2CCON2C(=O)[C@H]2CC[C@@H](Nc3cc(C#N)ncn3)CC2)c1 [Compound 28, cis-6-((4-((S)-3-(3-cyano-5-fluorophenyl)isoxazolidine-2-carbonyl)cyclohexyl)amino)pyrimidine-4-carbonitrile]
IC50 [1]: 0.162 µM
